From US20180344725A1, “QUINOLONE CHALCONE COMPOUNDS AND USES THEREOF” (priority 2015, published 2018)

Legend:
[1] = Kidney histology (H&E); type: in vivo, mice; conditions: day 30; paclitaxel 10 mg/kg; CTR 30 mg/kg; or paclitaxel 5 mg/kg + CTR 15 mg/kg
Protocol: (§1) Animals were monitored for food and water consumption every day, and their body weights and tumor volumes were measured twice per week. Tumor volumes were measured with a digital caliper and were determined by using the following formula: ½ length×width^2. Blood samples were collected via cardiac puncture and processed further for ALT and AST measurements. The animals were then immediately euthanized by carbon dioxide. Tumors and vital organs (spleen, kidney, liver and lung) were collected and fixed in 10% buffered formalin at 4° C. overnight before being processed for paraffin embedding. The paraffin-embedded blocks were then cut into 4-5 μm thick sections. Each section of tumors and organs was stained with hematoxylin and eosin (H&E).
(§2) Changes in body weight, hemoglobin (Hb) and the amount and ratio of alanine transaminase (ALT)/aspartate transaminase (AST) were used to measure toxic effects. In addition, vital organs (liver, spleen, kidney and lung) were analyzed by […] after they were harvested, fixed, processed, paraffin-embedded, sectioned, and stained as described above.
ATH490 mice were treated as described in Table 11. At day 30, kidneys were harvested, stained with H&E, and observed under a Zeiss EPI-fluorescent microscope (40× objective).

[2] = test system: H69AR; test: SRB-based cytotoxicity assay; type: cell-based, human; conditions: for Resistance (fold): H69AR versus SW-1271; for IC50: Homo sapiens, H69AR, multidrug-resistant
Protocol: 1845B5 and MCF-10A non-cancer breast cell lines were cultured in DME/F12 medium supplemented with 10% fetal bovine serum, antibiotics and growth factors. […] The human small cell lung carcinoma H69 cell line and its multidrug-resistant MRP1-overexpressing isogenic H69AR cell line were purchased from ATCC. […] H69 cells grow as large multi-cell aggregates, making it difficult to accurately count cell numbers. […] The IL-6 dependent bortezomib-resistant ANBL6-BR cell line was further supplemented with 1 ng/ml of IL-6. The MCF10AT1 and MCF10CA1a cell lines are isogenic to the MCF10A cell line, and obtained from Dr. Valerie Weaver at the Center for Bioengineering and Tissue Regeneration, UCSF, CA, USA. […] The drug-resistant cells were cultured in the absence of drug for at least one passage before carrying out experiments. All cells were maintained in a humidified incubator at 37° C. […] Cell line authentication was performed using short tandem repeat (STR) profiling. […] Some wells were treated with 100 μl of 10% trichloroacetic acid (TCA) as a negative control and sham (medium with dimethyl sulfoxide; DMSO) treated cells were used as a positive control. […] TCA was removed and cells were washed with cold tap water, and plate was air-dried, followed by addition of 50 μl of 0.4% SRB staining solution to each well. After 30 minutes incubation, SRB staining solution was removed. Cells were washed with 1% acetic acid solution, and then washed with tap water to remove unbound staining solution, followed by air-drying. 200 μl of 10 mM (pH10.5) trizma base buffer was added to each well to solubilise macromolecules. […] Cell growth (inhibition) was calculated by the following formula: % cells proliferation=[(AT-CT)/(ST-CT)]×100 wherein AT=absorbance of treated cells, CT=absorbance of negative control cells, and ST=absorbance of sham treated cells. […] CI values were determined from four independent experiments.

[3] = Toxicology analysis of spleen (H&E); type: in vivo, mice; set-up: key to Red Pulp (RP): Myeloid elements: ↑↑: Double and single upward arrows indicate highly and moderately increased, respectively; ↑: Double and single upward arrows indicate highly and moderately increased, respectively; conditions: 30 days, Paclitaxel 10 mg/kg, CTR 30 mg/kg, or Tax (5) + CTR (15)
Protocol: as §1, §2
ATH490 athymic mice were sham-treated (vehicle only) or treated with compounds of the indicated doses for 30 days, followed by toxicity analysis after spleen tissues were H & E stained. The numbers in the brackets are mg per kg of body weight. Arrows indicate the presence of macrophages in the red pulp (RP). Images were taken using a Zeiss EPI-fluorescent microscope (10× objective). Drug administration was carried out as described in Table 11.

SMILES | effects on the kidney [1] | Resistance (fold) [2] [fold] | IC50 [2] [nM] | Capsule [3] | Red Pulp (RP): Myeloid elements [3] | White pulp (WP) [3]
COc1ccc2[nH]c(=O)c(/C=C/C(=O)c3ccccc3OC)cc2c1 [CTR-20, (E)-6-Methoxy-3-(3-(2-methoxyphenyl)-3-oxoprop-1-enyl) quinolin-2(1H)-one] | generally did not cause any notable ill-effects to the kidney | 0.13 | 130 ± 10 | Normal | elements: ↑ | Less but bigger
CC(=O)O[C@H]1C(=O)[C@@]2(C)[C@H]([C@H](OC(=O)c3ccccc3)[C@]3(O)C[C@H](OC(=O)[C@H](O)[C@@H](NC(=O)c4ccccc4)c4ccccc4)C(C)=C1C3(C)C)[C@]1(OC(C)=O)CO[C@@H]1C[C@@H]2O [Paclitaxel, reference compound] | approximately 1 out of 5 mice showed renal abnormalities | 2.44 | – | Normal | elements: ↑↑^a | Less but bigger
COc1ccccc1C(=O)/C=C/c1cc2ccccc2[nH]c1=O [CTR-17, (E)-3-(3-(2-Methoxyphenyl)-3-oxoprop-1-enyl)quinolin-2(1H)-one] | generally did not cause any notable ill-effects to the kidney | 0.45 | 520 ± 100 | Normal | elements: ↑ | Less but bigger
